≈ marks a conversion by molar mass, not a printed value.
Assays:
[1] = test system: Staphylococcus epidermidis; assay: Antibacterial activity against Staphylococcus epidermidis ATCC 35547 assessed as effect on planktonic growth at 0.17 ug/ml after 20 hrs relative to control; assay type: functional
Streptococcus mutans [2] = assay: Antibacterial activity against Streptococcus mutans ATCC 25175 assessed as effect on planktonic growth at 43.8 ug/ml after 20 hrs relative to control; assay type: functional
Staphylococcus aureus [3] = assay: Antibacterial activity against Staphylococcus aureus ATCC 25923 assessed as effect on planktonic growth at 0.17 ug/ml after 20 hrs relative to control; assay type: functional
[4] = test system: Staphylococcus epidermidis; assay: Antibacterial activity against Staphylococcus epidermidis ATCC 35547 assessed as inhibition of biofilm formation after 20 hrs by crystal-violet staining method; assay type: functional, organism-based; conditions: for IC50: ATCC 35547, 20 h
[5] = test system: Staphylococcus epidermidis; assay: Antibacterial activity against Staphylococcus epidermidis ATCC 35547 assessed as effect on planktonic growth at 21.9 ug/ml after 20 hrs relative to control; assay type: functional
Staphylococcus aureus [6] = assay: Antibacterial activity against Staphylococcus aureus ATCC 25923 assessed as effect on planktonic growth at 43.8 ug/ml after 20 hrs relative to control; assay type: functional
[7] = test system: Staphylococcus epidermidis; assay: Antibacterial activity against Staphylococcus epidermidis ATCC 35547 assessed as effect on planktonic growth at 1.37 ug/ml after 20 hrs relative to control; assay type: functional
[8] = test system: Staphylococcus epidermidis; assay: Antibacterial activity against Staphylococcus epidermidis ATCC 35547 assessed as effect on planktonic growth at 87.5 ug/ml after 20 hrs relative to control; assay type: functional
[9] = test system: Staphylococcus epidermidis; assay: Antibacterial activity against Staphylococcus epidermidis ATCC 35547 assessed as effect on planktonic growth at 2.73 ug/ml after 20 hrs relative to control; assay type: functional
Pseudomonas aeruginosa [10] = assay: Antibacterial activity against Pseudomonas aeruginosa ATCC 27853 assessed as effect on planktonic growth at 0.34 ug/ml after 20 hrs relative to control; assay type: functional
Streptococcus mutans [11] = assay: Antibacterial activity against Streptococcus mutans ATCC 25175 assessed as effect on planktonic growth at 1.37 ug/ml after 20 hrs relative to control; assay type: functional
Pseudomonas aeruginosa [12] = assay: Antibacterial activity against Pseudomonas aeruginosa ATCC 27853 assessed as inhibition of biofilm formation after 20 hrs by crystal-violet staining method; assay type: functional, organism-based; conditions: for IC50: ATCC 27853, 20 h
[13] = test system: Staphylococcus epidermidis; assay: Antibacterial activity against Staphylococcus epidermidis ATCC 35547 assessed as effect on planktonic growth at 0.34 ug/ml after 20 hrs relative to control; assay type: functional
Pseudomonas aeruginosa [14] = assay: Antibacterial activity against Pseudomonas aeruginosa ATCC 27853 assessed as effect on planktonic growth at 21.9 ug/ml after 20 hrs relative to control; assay type: functional
Staphylococcus aureus [15] = assay: Antibacterial activity against Staphylococcus aureus ATCC 25923 assessed as effect on planktonic growth at 87.5 ug/ml after 20 hrs relative to control; assay type: functional
Streptococcus mutans [16] = assay: Induction of biofilm formation in Streptococcus mutans ATCC 25175 at 44 ug/ml after 20 hrs by crystal-violet staining method relative to control
Staphylococcus aureus [17] = assay: Antibacterial activity against Staphylococcus aureus ATCC 25923 assessed as effect on planktonic growth at 0.68 ug/ml after 20 hrs relative to control; assay type: functional
[18] = test system: Staphylococcus epidermidis; assay: Antibacterial activity against Staphylococcus epidermidis ATCC 35547 assessed as effect on planktonic growth at 0.68 ug/ml after 20 hrs relative to control; assay type: functional
Pseudomonas aeruginosa [19] = assay: Antibacterial activity against Pseudomonas aeruginosa ATCC 27853 assessed as effect on planktonic growth at 87.5 ug/ml after 20 hrs relative to control; assay type: functional
Staphylococcus aureus [20] = assay: Antibacterial activity against Staphylococcus aureus ATCC 25923 assessed as effect on planktonic growth at 10.9 ug/ml after 20 hrs relative to control; assay type: functional
Staphylococcus aureus [21] = assay: Antibacterial activity against Staphylococcus aureus ATCC 25923 assessed as effect on planktonic growth at 5.5 ug/ml after 20 hrs relative to control; assay type: functional
Streptococcus mutans [22] = assay: Antibacterial activity against Streptococcus mutans ATCC 25175 assessed as effect on planktonic growth at 21.9 ug/ml after 20 hrs relative to control; assay type: functional
Staphylococcus aureus [23] = assay: Antibacterial activity against Staphylococcus aureus ATCC 25923 assessed as effect on planktonic growth at 2.73 ug/ml after 20 hrs relative to control; assay type: functional
Staphylococcus aureus [24] = assay: Antibacterial activity against Staphylococcus aureus ATCC 25923 assessed as effect on planktonic growth at 21.9 ug/ml after 20 hrs relative to control; assay type: functional
Streptococcus mutans [25] = assay: Antibacterial activity against Streptococcus mutans ATCC 25175 assessed as effect on planktonic growth at 0.68 ug/ml after 20 hrs relative to control; assay type: functional
Pseudomonas aeruginosa [26] = assay: Antibacterial activity against Pseudomonas aeruginosa ATCC 27853 assessed as effect on planktonic growth at 10.9 ug/ml after 20 hrs relative to control; assay type: functional
Pseudomonas aeruginosa [27] = assay: Antibacterial activity against Pseudomonas aeruginosa ATCC 27853 assessed as effect on planktonic growth at 2.73 ug/ml after 20 hrs relative to control; assay type: functional
Pseudomonas aeruginosa [28] = assay: Antibacterial activity against Pseudomonas aeruginosa ATCC 27853 assessed as effect on planktonic growth at 1.37 ug/ml after 20 hrs relative to control; assay type: functional
Pseudomonas aeruginosa [29] = assay: Antibacterial activity against Pseudomonas aeruginosa ATCC 27853 assessed as effect on planktonic growth at 5.5 ug/ml after 20 hrs relative to control; assay type: functional
Streptococcus mutans [30] = assay: Antibacterial activity against Streptococcus mutans ATCC 25175 assessed as effect on planktonic growth at 87.5 ug/ml after 20 hrs relative to control; assay type: functional
[31] = test system: Staphylococcus epidermidis; assay: Antibacterial activity against Staphylococcus epidermidis ATCC 35547 assessed as effect on planktonic growth at 43.8 ug/ml after 20 hrs relative to control; assay type: functional
[32] = test system: Staphylococcus epidermidis; assay: Antibacterial activity against Staphylococcus epidermidis ATCC 35547 assessed as effect on planktonic growth at 10.9 ug/ml after 20 hrs relative to control; assay type: functional
Streptococcus mutans [33] = assay: Antibacterial activity against Streptococcus mutans ATCC 25175 assessed as effect on planktonic growth at 0.17 ug/ml after 20 hrs relative to control; assay type: functional
Streptococcus mutans [34] = assay: Antibacterial activity against Streptococcus mutans ATCC 25175 assessed as effect on planktonic growth at 10.9 ug/ml after 20 hrs relative to control; assay type: functional
[35] = test system: Staphylococcus epidermidis; assay: Antibacterial activity against Staphylococcus epidermidis ATCC 35547 assessed as effect on planktonic growth at 5.5 ug/ml after 20 hrs relative to control; assay type: functional
Streptococcus mutans [36] = assay: Antibacterial activity against Streptococcus mutans ATCC 25175 assessed as effect on planktonic growth at 2.73 ug/ml after 20 hrs relative to control; assay type: functional
Streptococcus mutans [37] = assay: Antibacterial activity against Streptococcus mutans ATCC 25175 assessed as effect on planktonic growth at 0.34 ug/ml after 20 hrs relative to control; assay type: functional
Pseudomonas aeruginosa [38] = assay: Antibacterial activity against Pseudomonas aeruginosa ATCC 27853 assessed as effect on planktonic growth at 0.17 ug/ml after 20 hrs relative to control; assay type: functional
Pseudomonas aeruginosa [39] = assay: Antibacterial activity against Pseudomonas aeruginosa ATCC 27853 assessed as effect on planktonic growth at 0.68 ug/ml after 20 hrs relative to control; assay type: functional
Streptococcus mutans [40] = assay: Antibacterial activity against Streptococcus mutans ATCC 25175 assessed as effect on planktonic growth at 5.5 ug/ml after 20 hrs relative to control; assay type: functional
Pseudomonas aeruginosa [41] = assay: Antibacterial activity against Pseudomonas aeruginosa ATCC 27853 assessed as effect on planktonic growth at 43.8 ug/ml after 20 hrs relative to control; assay type: functional
Staphylococcus aureus [42] = assay: Antibacterial activity against Staphylococcus aureus ATCC 25923 assessed as effect on planktonic growth at 1.37 ug/ml after 20 hrs relative to control; assay type: functional
Staphylococcus aureus [43] = assay: Antibacterial activity against Staphylococcus aureus ATCC 25923 assessed as effect on planktonic growth at 0.34 ug/ml after 20 hrs relative to control; assay type: functional
Streptococcus mutans [44] = assay: Antibacterial activity against Streptococcus mutans OMZ175 assessed as inhibition of biofilm formation at 6 uM relative to control; assay type: functional
Staphylococcus aureus [45] = assay: Antibacterial activity against Staphylococcus aureus ATCC 25923 assessed as inhibition of biofilm formation after 20 hrs by crystal-violet staining method; assay type: functional, organism-based; conditions: ATCC 25923, 20 h
Staphylococcus aureus [46] = assay: Antibacterial activity against Staphylococcus aureus ATCC 25923 assessed as inhibition of biofilm formation at 44 ug/ml after 20 hrs by crystal-violet staining method relative to control; assay type: functional; conditions: ATCC 25923, 20 h

Work on `COc1ccc(C)cc1C1=C(Br)C(=O)O/C1=C\c1cccc(Cl)c1` yielded an Activity [1] of 13.2%, an Activity (Streptococcus mutans [2]) of 19.8% and an Activity (Staphylococcus aureus [3]) of 23%. For the same compound, the inhibition [4] was “Dose-dependent effect”, the IC50 [4] was > 87.5 µg/mL and the Activity [5] was 8.9%. For the same compound, the Activity (Staphylococcus aureus [6]) was 66.1%, the Activity [7] was 4.9% and the Activity [8] was 33.8%. It also gave an Activity [9] of -4%, an Activity (Pseudomonas aeruginosa [10]) of -4.8% and an Activity (Streptococcus mutans [11]) of 0%. For the same compound, the inhibition (Pseudomonas aeruginosa [12]) was “Dose-dependent effect”, the IC50 (Pseudomonas aeruginosa [12]) was > 87.5 µg/mL and the Activity [13] was 10.3%. For the same compound, the Activity (Pseudomonas aeruginosa [14]) was -12.1%, the Activity (Staphylococcus aureus [15]) was 131% and the Activity (Streptococcus mutans [16]) was “Toxic”. The Activity (Staphylococcus aureus [17]) was 52.2%, the Activity [18] was 11.9% and the Activity (Pseudomonas aeruginosa [19]) was 7.8%. The Activity (Staphylococcus aureus [20]) was 34.9%, the Activity (Staphylococcus aureus [21]) was 35.4% and the Activity (Streptococcus mutans [22]) was 12.1%. It also gave an Activity (Staphylococcus aureus [23]) of 46.8%, an Activity (Staphylococcus aureus [24]) of 39.3% and an Activity (Streptococcus mutans [25]) of -5.8%. It also gave an Activity (Pseudomonas aeruginosa [26]) of -14%, an Activity (Pseudomonas aeruginosa [27]) of -4.8% and an Activity (Pseudomonas aeruginosa [28]) of 0.8%. For the same compound, the Activity (Pseudomonas aeruginosa [29]) was -8.9%, the Activity (Streptococcus mutans [30]) was 34.9% and the Activity [31] was 12.7%. It also gave an Activity [32] of -3.1%, an Activity (Streptococcus mutans [33]) of 10.2% and an Activity (Streptococcus mutans [34]) of -2.7%. For the same compound, the Activity [35] was 4%, the Activity (Streptococcus mutans [36]) was 8.2% and the Activity (Streptococcus mutans [37]) was 9.9%. The Activity (Pseudomonas aeruginosa [38]) was -3%, the Activity (Pseudomonas aeruginosa [39]) was -0.1% and the Activity (Streptococcus mutans [40]) was 5.2%. It also gave an Activity (Pseudomonas aeruginosa [41]) of -8.5%, an Activity (Staphylococcus aureus [42]) of 50.6% and an Activity (Staphylococcus aureus [43]) of 47.5%.
In the case of `O=C1C=C/C(=C/Br)O1`, the inhibition at 6 µM (Streptococcus mutans [44]) is reported as 26%.
`COc1ccc(Cl)cc1C1=C(Br)C(=O)N(CC(C)C)C1(O)Cc1ccccc1Br` (configuration not stated) was tested, and the Activity [1] was 9.4%, the Activity (Streptococcus mutans [2]) was 24.4% and the Activity (Staphylococcus aureus [3]) was 8.4%. The inhibition [4] was “Dose-dependent effect”, the IC50 [4] was 83.4 µg/mL (≈ 153 µM) and the Activity [5] was 13.2%. For the same compound, the Activity (Staphylococcus aureus [6]) was 12.8%, the Activity [7] was 7.8% and the Activity [8] was 17.6%. For the same compound, the Activity [9] was 21.5%, the Activity (Pseudomonas aeruginosa [10]) was -9.6% and the Activity (Streptococcus mutans [11]) was 3.5%. For the same compound, the inhibition (Pseudomonas aeruginosa [12]) was “Dose-dependent effect”, the IC50 (Pseudomonas aeruginosa [12]) was > 87.5 µg/mL and the Activity [13] was 2.6%. For the same compound, the Activity (Pseudomonas aeruginosa [14]) was -9.2%, the Activity (Staphylococcus aureus [15]) was 14.3% and the Activity (Staphylococcus aureus [17]) was 3.7%. The Activity [18] was 9.4%, the Activity (Pseudomonas aeruginosa [19]) was 24.8% and the Activity (Staphylococcus aureus [20]) was -2.4%. The Activity (Staphylococcus aureus [21]) was -9%, the Activity (Streptococcus mutans [22]) was 15.4% and the Activity (Staphylococcus aureus [23]) was -1.3%. It also gave an Activity (Staphylococcus aureus [24]) of 4.2%, an Activity (Streptococcus mutans [25]) of -7.7% and an Activity (Pseudomonas aeruginosa [26]) of -14.9%. For the same compound, the Activity (Pseudomonas aeruginosa [27]) was -13.8%, the Activity (Pseudomonas aeruginosa [28]) was -5.6% and the Activity (Pseudomonas aeruginosa [29]) was -13.5%. The Activity (Streptococcus mutans [30]) was 24.4%, the Activity [31] was 28.8% and the Activity [32] was 4.2%. The IC50 (Staphylococcus aureus [45]) was 6.8 µM, the Activity (Streptococcus mutans [33]) was -16.1% and the Activity (Streptococcus mutans [34]) was 9%. The Activity [35] was 6.4%, the Activity (Streptococcus mutans [36]) was 1.6% and the Activity (Streptococcus mutans [37]) was -13.8%. For the same compound, the Activity (Pseudomonas aeruginosa [38]) was -7.2%, the Activity (Pseudomonas aeruginosa [39]) was -6.4% and the Activity (Streptococcus mutans [40]) was 9%. The Activity (Pseudomonas aeruginosa [41]) was 5.7%, the inhibition at 44 µg/mL (Staphylococcus aureus [46]) was 53.1% and the Activity (Staphylococcus aureus [42]) was 5.9%. The Activity (Staphylococcus aureus [43]) was 6.2%.
